Test results from US20200352918A1, “COMPOUNDS AND METHODS FOR TREATING OR PREVENTING FIBROSIS” (priority 2019, published 2020).
Structures can show the parent of a compound that is named as a salt.

Tests used:
[1] = test system: iFA phenotype of mesenchymal-like cells on 13 kPa hydrogels; assay: iFA-prevention phenotypic high-content drug screen (iFA model); format: cell-based, human; conditions: for Dose response: 20 point dose course, picomolar to millimolar; for Efficacy in secondary screen: assay repeated with compound sourced commercially or from additional library materials; for Prevention/rescue of the iFA phenotype: 3.75 μgm/ml IFNγ (FIG. 25C)
Experimental: Mesenchymal-like cells were cultured on 13 kPa functionalized polyacrylamide gels that were prepared as follows. 187.5 μl of 40% acrylamide, 60 μl of 2% bis-acrylamide and 8.55 μl of sodium bisulfate in a final volume of 990 μl of water was incubated for 20 min at room temperature to degas the mixture. To this mixture, 0.10% ammonium persulfate and 0.15% TEMED were added, mixed and 100 μl of the solution was added onto a 0.4% 3-(Trimethoxysily) propyl methacrylate pH 3.5 treated coverslip. A 2% dimethyl dichlorosilane in chloroform treated round glass coverslip was then inverted on the acrylamide solution and allowed to polymerize for 15 min between the two surfaces. The top coverslip was gently removed, and the bottom coverslips with the hydrogel were transferred to appropriate multi-well low adherent tissue culture plate containing coupling buffer (0.1 M sodium phosphate dibasic, 0.1 M sodium phosphate monobasic) pH 8. To functionalize the hydrogel, 1 part of 0.1 M p-benzoquinone in dioxane was added to the hydrogels containing 4 parts of coupling buffer and incubated at 37° C. for 30 min. The gel was then successively washed with 20% dioxane in water, water, 0.1 M sodium acetate buffer at pH 4.0 containing 1.0 M sodium chloride, 0.1 M sodium bicarbonate solution at pH 8.5 containing 1.0 M sodium chloride, and finally with coupling buffer at pH 7.5. The hydrogels were then coated with 0.1% gelatin for 2 hrs prior to seeding the cells. Cells were seeded at a density of 3000 cells/cm^2.
A phenotypic high-content drug screen was prepared to identify compounds capable of preventing the iFA phenotype in a 96-well format. An ImageXpress XL high-throughput imager with a 4× Plan objective (N/A 0.20) was used with image based focusing. Briefly, 100 μL media were plated in each well of 96 well plate using a Thermo Multidrop non-contact dispenser. Using a custom V&P pin tool mounted to a Beckman FX liquid handler, 1.5 μL compounds or DMSO were added. Mesenchymal-like cells were added as a suspension using the Multidrop at a density of 3.5×10^3 cells/well. The resulting compound concentration was 10 μM. Cells were imaged after 7 days of incubation at 37° C. and 5% CO2: A final of 0.5 μg/ml of Calcein AM and/or 10 μg/ml propidium iodide (viability dye) with 1 μg/ml Hoechst 33342 were added and imaged using the ImageXpress XL system. Data mining was performed using a custom module consisting of the following steps: The image background was removed using a top-hat filter with 25 μm round shape polisher. Next, cellular aggregates and individual spindle-shaped cells were identified. Aggregates of cells were defined by size with a cut-off of 60 to 200 micron and an intensity of at least 200 gray scales over background. Individual spindle-shaped cells were identified as smaller objects with cut-offs from 15 to 100 micron and a lower intensity of at least 70 gray scales over background.
Additional morphometric measurements were made by counting labeled cell nuclei and measuring total area covered with cells per well. The data resulting from the screen were batch exported through MetaXpress and uploaded into a Collaborative Drug Discovery (CDD) cloud based database (Ekins and Bunin, 2013, Methods in molecular biology 993, 139-154.). Hits were selected on a cut-off of more than 3 standard deviations from mean using data normalized to reference wells in each plate. IC50 values (the half maximal inhibitory concentration) from confirmation experiments were calculated from dose-response signal curves using the Prism software (GraphPad Software).
Signal-to-background (S/B) ratio, standard variation and variation coefficients were calculated as the signal of DMSO treated wells divided by the signal of the hit compound (AA5) treated wells. […]

[2] = test system: iFA model; assay: Fibrotic marker, cytokine and repair modulator expression in the iFA model (qPCR, immunoblotting, luminex, immunofluorescence); format: cell-based, human; conditions: 3.75 μgm/ml IFNγ vs DMSO-treated controls
Experimental: The Milliplex human cytokine/chemokine Panel IV, human TIMP Panel 2, and human TGFβ 1,2,3 magnetic bead kits (EMD Millipore) were used per manufacturer's instructions. Prior to plating, all samples tested for human TGFβ only were activated and neutralized with 1.0 N HCl and 1.0 N NaOH, respectively. Briefly, 25 μl of undiluted or treated cell culture supernatant samples were mixed with 25 μl of magnetic beads and allowed to incubate overnight at 4° C. while shaking. After washing the plates with wash buffer in a Biotek ELx405 washer, 25 μl of biotinylated detection antibody was added and incubated for 1 hour at room temperature while shaking. 25 μl of streptavidin-phycoerythrin conjugate was then added to the reaction mixture and incubated for another 30 minutes at room temperature while shaking. Following additional washes, beads were resuspended in sheath fluid, and fluorescence was quantified using a Luminex 200 instrument. Similarly, a custom magnetic Luminex assay kit of select analytes (R&D Systems) was used per manufacturer's instructions. Cell culture supernatants were prepared with a 2-fold dilution. 50 μl of diluted sample were added to 50 μl of provided micro-particle cocktail and incubated for 2 hours at room temperature while shaking. After washing with wash buffer, 50 μl of biotin antibody cocktail was added and incubated for 1 hour at room temperature while shaking. Following additional washes, 50 μl of diluted Streptavidin-PE was then added for incubation for 30 minutes at room temperature while shaking. The plate was then washed again and the micro-particles resuspended in 100 μl wash buffer. After an additional 2-minute incubation while shaking, the data was acquired using a Luminex 200 instrument.
In-vitro cultures of PF and cells in the iFA model were washed once with PBS and total RNA from the samples were extracted using the RNeasy Mini Kit (Qiagen) according to the manufacturer's instructions. For the lung slice cultures (LSC), tissues were snap-frozen after treatment and stored at −80° C. until RNA isolation. Lung slices were homogenized using a handheld homogenizer and passing the homogenate through a Qiashredder (Qiagen). Total RNA from the LSC and cells from the disease model were extracted using the RNeasy Mini Kit (Qiagen) according to the manufacturer's instructions. The RNA concentrations were measured on a NanoDrop ND-1000 spectrophotometer. Single-stranded cDNA was synthesized from 200 ng of total RNA using Superscript IV and random hexamer primers (Invitrogen) in a volume of 20 μl. cDNA was then used for qRT-PCR analysis. PCR reactions were performed using Taqman Gene Expression Assay mix (Applied Biosystems) according to the manufacturer's instructions.
qRT-PCR reactions were performed using the StepOnePlus (Applied Biosystems). Relative gene expression was calculated using the 2^−ΔΔCt method, with 18S Cat. #4331182 (Invitrogen) as housekeeping gene. For the RT^2qPCR arrays, cDNA from DMSO and AA5 treated iFA and was added to the RT^2 qPCR iTaq Universal SYBR green Master Mix (Biorad). 20 μl of the experimental cocktail was added to each well of the Fibrosis PCR (Qiagen). Real-Time PCR was performed on the StepOnePlus qPCR system (Applied Biosystems) using SYBR green detection according to the manufacturer's recommendations. All data from the PCR was collected and analyzed by SA Bioscience's PCR Array Data Analysis Web Portal.
Cells grown on coverslips were fixed in 4% paraformaldehyde (PFA) for 10 min at room temperature and washed three times with TBS buffer supplemented with 0.1% Tween 20 (TBST). Lung samples were fixed overnight in 4% PFA at room temperature, washed 3 times in PBS, dehydrated and then infiltrated and embedded with wax. Five-micron sections were collected on glass slides, deparaffinized and rehydrated. Heat-induced epitope retrieval was performed using 1 mM EDTA in a microwave. […]

[3] = library compound plated with cells on day 1 on hydrogel, phenotype on day 7, 10 μM

Molecule | Efficacy in secondary screen [1] | Efficacy in primary screen [1, 3] | further results
COC(=O)/C=C/c1cc(O)ccc1O | ++ (++ = moderate effect) | +++ (+++ = strong effect) | Dose response [1]: ++ (++ = moderate effect)
CN(C)c1ccc(C(=C2C=CC(=[N+](C)C)C=C2)c2ccc(N(C)C)cc2)cc1.[Cl-] | ++ (++ = moderate effect) | +++ (+++ = strong effect) | –
NC(CP(=O)(O)O)C(=O)O (racemic) [±)-2-Amino-3-phosphonopropionic acid] | + | +++ (+++ = strong effect) | –
CN1CCC2(C)c3cc(O)ccc3N(C)C12.O=C(O)/C=C/C(=O)O (single isomer, unassigned; (-)) [(−)Eseroline fumarate salt., (−)Eseroline fumarate salt] | ++ (++ = moderate effect) | +++ (+++ = strong effect) | –
COc1ccc2c(c1)c(CC(=O)O)c(C)n2Cc1ccc(Cl)cc1 [1-(4-Chlorobenzyl)-5-methoxy-2-methylindole-3-acetic acid] | + | +++ (+++ = strong effect) | –
S=C(Nc1ccccc1)Nc1nccs1 [1-Pheny1-3-(2-thiazolyl)-2-thiourea] | + | +++ (+++ = strong effect) | –
CCCCC/C=C\C/C=C\C/C=C\C/C=C\CCCC(=O)NCc1ccc(O)c(OC)c1 [Arvanil] | + | +++ (+++ = strong effect) | –
CC(NC(C)(C)C)C(=O)c1cccc(Cl)c1 (stereo not drawn) [Bupropion hydrochloride] | + | +++ (+++ = strong effect) | –
CN1CCN(c2cccc(Nc3nc4c(-c5ccc(S(C)(=O)=O)cc5)cccn4n3)c2)CC1 [CEP-33779 JAK2 Inhibitor] | ++ (++ = moderate effect) | +++ (+++ = strong effect) | –
CC(C)(CO)Cc1cc(C(C)(C)C)c(O)c(C(C)(C)C)c1 [CGP-7930] | + | +++ (+++ = strong effect) | –
CC(C)(C=O)Cc1cc(C(C)(C)C)c(O)c(C(C)(C)C)c1 [CGP-13501] | + | +++ (+++ = strong effect) | –
CCCNC(=O)NS(=O)(=O)c1ccc(Cl)cc1 [Chlorpropamide] | + | +++ (+++ = strong effect) | –
Cc1cc(C2CCCCC2)n(O)c(=O)c1.NCCO [Ciclopirox ethanolamine., Ciclopirox ethanolamine] | ++ (++ = moderate effect) | +++ (+++ = strong effect) | –
O=P1(N(CCCl)CCCl)NCCCO1 (stereo not drawn) [Cyclophosphamide] | + | +++ (+++ = strong effect) | –
CSCC[C@@H](N)C(=O)O [D-methionine] | ++ (++ = moderate effect) | – | Efficacy in primary screen ([1]; 168 h, 10 µM): +++ (+++ = strong effect)
COC(=O)Nc1nc2ccc(Sc3ccccc3)cc2[nH]1 [Fenbendazole., Fenbendazole] | ++ (++ = moderate effect) | +++ (+++ = strong effect) | –
N#CC(C#N)=C(N)/C(C#N)=C/c1cc(O)c(O)c(O)c1 [Tyrphostin 51] | + | +++ (+++ = strong effect) | –
C[C@@H](N)[C@H]1CC[C@H](C(=O)Nc2ccncc2)CC1 [Y-27632 Rock Inhibitor] | ++ (++ = moderate effect) | +++ (+++ = strong effect) | –
NCCCC(=O)O [γ-Aminobutyric acid] | + | +++ (+++ = strong effect) | –
Recombinant Human IFN-gamma Protein: Recombinant Human IFN-gamma Protein; IFNs are known anti-fibrotic cytokines (protein, UniProt P01579 24-161, looked up) Interferon gamma: QDPYVKEAENLKKYFNAGHSDVADNGTLFLGILKNWKEESDRKIMQSQIVSFYFKLFKNFKDDQSIQKSVETIKEDMNVKFFNSNKKKRDDFEKLTNYSVTDLNVQRKAIHELIQVMAELSPAAKTGKRKRSQMLFRG | ++ (++ = moderate effect) | +++ (+++ = strong effect) | Prevention/rescue of the iFA phenotype [1]: Partial prevention of the iFA phenotype; Prevention/rescue of the iFA phenotype ([1]; listed as recombinant IFNγ): partially rescued the iFA phenotype; Dose response [1]: +; α-SMA and Collagen I (IF) [2]: reduced
